A short description of data set [1]: Net charge of peptide at pH 7.5 in physiological solution. It is filed as physicochemical. The conditions noted are these: per peptide, pH 7.5, physiological solution.
The nature of data set [2]: Fibril dimensions measured from TEM images. It is filed as physicochemical. To be noted: physiological conditions, TEM. The method, then: For, electron microscopy, samples were examined using a Phillips CM10 TEM at 80-100 kV accelerating voltage. Gels were diluted to a peptide concentration of 20 μM seconds before application to a glow-discharged, carbon-coated, copper grid followed by coating with uranyl acetate solution (4% w/v in water).
The dimensions of the fibrils formed by these peptides are given in Table 2, and TEM images from which these measurements were obtained are shown in FIGS. 6A-6D. These dimensions are—the length of a peptide fibril (contour length, L), the length of a peptide fibril before it curves (persistence length, l), the length of a full twist of a peptide fibril (twist pitch, h) the width of a fibril at its widest point (ww) and the width of the fibril at its narrowest point as it twists (wn).

For the next data set, the system named is L929 fibroblast cells. Description: Cell density in peptide gels by ATPLite assay. It is filed as cell-based, murine. The source says:
After establishing that the peptides tested were not cytotoxic when placed in culture with L929 fibroblast cells, the next stage was assessing the suitability of the collagen peptide gels for use in supporting cell proliferation.

A short description of data set [3]: Self-assembly and gel formation in physiological solution / cell media. The conditions noted are these: for peptide concentration for self-supporting gel: physiological conditions. It is filed as physicochemical. The text has this: A large number (dozens) of systematically varied peptides (typically 7-30 residues long) have been studied for soluble polymer and gel formation in cell media. […] Only peptides with a approximate net +2 or −2 charge per peptide at physiological pH=7.5, were able to form soluble polymers and gel cell media (The amount of net charge necessary per peptide to keep its polymers soluble in cell media will vary depending on the overall surface properties and solubility of the peptide tapes it forms). […] These peptides retained a predominantly monomeric state and their solutions in cell media were fluids up to around 40 mg/ml peptide concentration.
The rationally designed peptide P11-8 (Tables 1A and 1C) was dissolved in 145 mM NaCl, pH˜7.5 aqueous solution (the ionic strength and pH values of the solution were similar to those present in cell culture medium) or it was added directly in cell culture medium.
The fibrils of P11-8 entwined partly with each other forming a three dimensional network and turned the peptide solution in cell media into a homogeneous self-supporting gel at peptide concentration higher than 15 mg/ml.
The gel could be temporarily broken by mechanical agitation. The time it took the gel to reform depended on the peptide concentration, ranging from seconds for a 35 mg/ml peptide gel, to hours for a 15 mg/ml peptide gel.

For data set [4], the system named is tissue surrounding the injection site. Also noted: species or system mice. To be noted: mouse, in vivo. The source says: Injection of P11-3 and P11-8 peptide solutions in cell media in mice has shown no effect of the presence of the peptide in the tissue surrounding the injection site as judged by histology after two and eight weeks following the peptide injection.

Entries after “also recorded” stand apart in the source; their conditions may differ. Counter-ions that a name gives are not always drawn. Where a SMILES comes first, the peptide text is derived from it. Where no end group is shown, it is not given here. [ ]: non-standard residue; d: D form. Orn = NCCC[C@H](N)C(=O)O

This note sets out measurements from patent US9630991B2, “βsheet tapes ribbons in tissue engineering” (University of Leeds, priority 2002, dated 2017).

On to `CC(=O)N[C@@H](CO)C(=O)N[C@@H](CO)C(=O)N[C@@H](CCCNC(=N)N)C(=O)N[C@@H](Cc1ccccc1)C(=O)N[C@@H](CCC(=O)O)C(=O)N[C@@H](Cc1c[nH]c2ccccc12)C(=O)N[C@@H](CCC(=O)O)C(=O)N[C@@H](Cc1ccccc1)C(=O)N[C@@H](CCC(=O)O)C(=O)N[C@@H](CO)C(=O)N[C@@H](CO)C(N)=O` [Peptide P11-9, CH3CO-S-S-R-F-E-W-E-F-E-S-S-NH2] (Ac-SSRFEWEFESS-NH2), for which, in data set [1], the “Net charge at pH 7.5” value is −2. In data set [2], the “L, fibril contour length” value is recorded as 1.1-5 μm; the “h, twist pitch” value was 118-236 nm; the “l, fibril persistence length” value is 0.4-1.3 μm; the “wn, width of the fibril at its narrowest point” value (shortened to “wn, width of the fibril”) is reported as 3.5-7 nm. Also, in data set [2], the “ww, width of the fibril at its widest point” value (shortened to “ww, width of the fibril”) is listed as 7-12 nm. Further, in the data set on L929 fibroblast cells (L929 cells in peptide gels), the “support of cell growth” value is recorded as “unsuccessful in supporting cell growth”.

In the case of `CC(=O)N[C@@H](CO)C(=O)N[C@@H](CO)C(=O)N[C@@H](CCCNC(=N)N)C(=O)N[C@@H](Cc1ccccc1)C(=O)N[C@@H](CCCN)C(=O)N[C@@H](Cc1c[nH]c2ccccc12)C(=O)N[C@@H](CCCN)C(=O)N[C@@H](Cc1ccccc1)C(=O)N[C@@H](CCC(=O)O)C(=O)N[C@@H](CO)C(=O)N[C@@H](CO)C(N)=O` [Peptide P11-12, CH3CO-S-S-R-F-O-W-O-F-E-S-S-NH2] (Ac-SSRF[Orn]W[Orn]FESS-NH2), the “Net charge at pH 7.5” value in data set [1] is “+2”. In data set [2], the “L, fibril contour length” value is 1.3-5 μm; the “h, twist pitch” value is given as 139-220 nm; the “l, fibril persistence length” value is given as 0.4-1.2 μm; the “wn, width of the fibril” value is listed as 5-7 nm. Further, the “ww, width of the fibril” value in data set [2] is 11-16 nm. The “support of cell growth” value in the data set with L929 fibroblast cells (L929 cells in peptide gels) is recorded as “unsuccessful in supporting cell growth”.

In the case of `CC(=O)N[C@H](C(=O)N[C@H](C(=O)N[C@@H](CCCNC(=N)N)C(=O)N[C@@H](Cc1ccccc1)C(=O)N[C@@H](CCC(=O)O)C(=O)N[C@@H](Cc1c[nH]c2ccccc12)C(=O)N[C@@H](CCC(=O)O)C(=O)N[C@@H](Cc1ccccc1)C(=O)N[C@@H](CCC(=O)O)C(=O)N[C@H](C(=O)N[C@H](C(N)=O)[C@@H](C)O)[C@@H](C)O)[C@@H](C)O)[C@@H](C)O` [Peptide P11-17, CH3CO-T-T-R-F-E-W-E-F-E-T-T-NH2] (Ac-TTRFEWEFETT-NH2), in data set [1], the “Net charge at pH 7.5” value is listed as −2. In addition, in data set [2], the “L, fibril contour length” value is listed as 1.3-4.5 μm; the “h, twist pitch” value is 150-236 nm; the “l, fibril persistence length” value is listed as 0.3-1.7 μm; the “wn, width of the fibril” value is 5-10 nm. The “ww, width of the fibril” value in data set [2] was 10-16 nm.

In the case of `CC(=O)N[C@H](C(=O)N[C@H](C(=O)N[C@@H](CCCNC(=N)N)C(=O)N[C@@H](Cc1ccccc1)C(=O)N[C@@H](CCCN)C(=O)N[C@@H](Cc1c[nH]c2ccccc12)C(=O)N[C@@H](CCCN)C(=O)N[C@@H](Cc1ccccc1)C(=O)N[C@@H](CCC(=O)O)C(=O)N[C@H](C(=O)N[C@H](C(N)=O)[C@@H](C)O)[C@@H](C)O)[C@@H](C)O)[C@@H](C)O` [Peptide P11-18, CH3CO-T-T-R-F-O-W-O-F-E-T-T-NH2] (Ac-TTRF[Orn]W[Orn]FETT-NH2), the “Net charge at pH 7.5” value in data set [1] is “+2”. Besides, in data set [2], the “L, fibril contour length” value is listed as 1.4-4.2 μm; the “h, twist pitch” value is listed as 142-236 nm; the “l, fibril persistence length” value is reported as 0.5-1.7 μm; the “wn, width of the fibril” value was 7-11 nm. The “ww, width of the fibril” value in data set [2] was 11-21 nm. In addition, the “support of cell growth” value in the data set on L929 fibroblast cells (L929 cells in peptide gels) is listed as “unsuccessful in supporting cell growth”.

Consider `CC(=O)N[C@@H](CCC(N)=O)C(=O)N[C@@H](CCC(N)=O)C(=O)N[C@@H](CCCNC(=N)N)C(=O)N[C@@H](CCC(N)=O)C(=O)N[C@@H](CCCN)C(=O)N[C@@H](CCC(N)=O)C(=O)N[C@@H](CCCN)C(=O)N[C@@H](CCC(N)=O)C(=O)N[C@@H](CCC(=O)O)C(=O)N[C@@H](CCC(N)=O)C(=O)N[C@@H](CCC(N)=O)C(N)=O` [Peptide P11-19, CH3CO-Q-Q-R-Q-O-Q-O-Q-E-Q-Q-NH2] (Ac-QQRQ[Orn]Q[Orn]QEQQ-NH2), for which the “Net charge at pH 7.5” value in data set [1] is on record as “+2”. Also, in data set [2], the “L, fibril contour length” value was 1.5-3 μm; the “h, twist pitch” value is 206-356 nm; the “l, fibril persistence length” value is 0.5-1 μm; the “wn, width of the fibril” value is listed as 7-13 nm. Besides, the “ww, width of the fibril” value in data set [2] is on record as 15-22 nm. In addition, in data set [3], the “peptide concentration for self-supporting gel” value worked out at 60 mg/mL. The “self-assembly / gelation at 30 mg·ml^−1” value in data set [3] (physiological solution, 30 mg·ml^−1) is “does not self assemble; also recorded: did not gel”.

On to `CC(=O)N[C@@H](CCC(N)=O)C(=O)N[C@@H](CCC(N)=O)C(=O)N[C@@H](CCCNC(=N)N)C(=O)N[C@@H](CCC(N)=O)C(=O)N[C@@H](CCC(=O)O)C(=O)N[C@@H](CCC(N)=O)C(=O)N[C@@H](CCC(=O)O)C(=O)N[C@@H](CCC(N)=O)C(=O)N[C@@H](CCC(=O)O)C(=O)N[C@@H](CCC(N)=O)C(=O)N[C@@H](CCC(N)=O)C(N)=O` [Peptide P11-20, CH3CO-Q-Q-R-Q-E-Q-E-Q-E-Q-Q-NH2] (Ac-QQRQEQEQEQQ-NH2), for which, in data set [1], the “Net charge at pH 7.5” value is listed as −2. In addition, in data set [2], the “L, fibril contour length” value is 0.9-2.8 μm; the “h, twist pitch” value is reported as 202-363 nm; the “l, fibril persistence length” value is recorded as 0.4-1.5 μm; the “wn, width of the fibril” value is on record as 8-15 nm. Also, the “ww, width of the fibril” value in data set [2] is 14-20 nm. The “peptide concentration for self-supporting gel” value in data set [3] was above 20 mg/mL. In addition, the “support of cell growth” value in the data set with L929 fibroblast cells (L929 cells in peptide gels) is on record as “supported cell growth reasonably well”. In the data set with L929 fibroblast cells (at end of cell culture experiment), the “macroscopic appearance of gel” value was “some signs of macroscopic degradation”.

Turning to `O=C(O)C(F)(F)F` [TFA], the “support of cell growth” value is given as “supported cell growth with no obvious detrimental effect on the cells” in the data set with L929 fibroblast cells (collagen gels supplemented with 0.9 mg·ml^−1 TFA) and “supported cell growth with no visible detrimental effect on cell growth” in the data set with L929 fibroblast cells (collagen gels supplemented with 5.1 mg·ml^−1 TFA).

For “CH3CO-E-Q-E-F-E-W-E-F-E-Q-E-HN2 (Ac-EQEFEWEFEQE-NH2) [Peptide P11-13]”, in data set [1], the “Net charge at pH 7.5” value is on record as -6.

Regarding “CH3CO-Q-Q-O-F-O-W-O-F-O-Q-Q-NH2 (Ac-QQ[Orn]F[Orn]W[Orn]F[Orn]QQ-NH2; SMILES CC(=O)N[C@@H](CCC(N)=O)C(=O)N[C@@H](CCC(N)=O)C(=O)N[C@@H](CCCN)C(=O)N[C@@H](Cc1ccccc1)C(=O)N[C@@H](CCCN)C(=O)N[C@@H](Cc1c[nH]c2ccccc12)C(=O)N[C@@H](CCCN)C(=O)N[C@@H](Cc1ccccc1)C(=O)N[C@@H](CCCN)C(=O)N[C@@H](CCC(N)=O)C(=O)N[C@@H](CCC(N)=O)C(N)=O) [Peptide P11-14]”, in data set [1], the “Net charge at pH 7.5” value is “+4”.

Turning to “CH3CO-Q-Q-R-F-E-W-E-F-E-Q-Q-NH2 (Ac-QQRFEWEFEQQ-NH2) [Peptide P11-4]”, the “Net charge at pH 7.5” value in data set [1] is given as −2. Also, in data set [2], the “L, fibril contour length” value was 1.2-7 μm; the “h, twist pitch” value is on record as 132-360 nm; the “l, fibril persistence length” value was 0.7-1.4 μm; the “wn, width of the fibril” value was 5.5-8 nm. Also, in data set [2], the “ww, width of the fibril” value is listed as 8-14 nm.

For “QQE^-FE^-WE^-FE^±QQ (QQEFEWEFEQQ; self assembling peptide P11-23)”, in data set [1], the “Net charge at pH 7.5” value is -4.

For the compound “QQO^+FO^+WO^+FQQQ (QQ[Orn]F[Orn]W[Orn]FQQQ; not fully specified (N-terminus, C-terminus); printed as QQO+FO+WO+FQQQ) [Peptide P11-5]”, the “Net charge at pH 7.5” value in data set [1] is listed as “+3”.

For “QQQFE^-WE^-FE^±QQ (QQQFEWEFEQQ; self assembling peptide P11-22)”, the “Net charge at pH 7.5” value in data set [1] is listed as -3.

Turning to “QQQFQWQFE^-QQ (QQQFQWQFEQQ; self assembling peptide P11-21)”, in data set [1], the “Net charge at pH 7.5” value is -1.

Consider “QQR^+FQWQFQQQ (QQRFQWQFQQQ; self assembling peptide P11-3)”, for which, in data set [3] (cell media), the “fibrils and gels after sterilisation using an autoclave” value is listed as “reform after sterilisation using an autoclave”. Further, in data set [4], the “effect on tissue surrounding the injection site by histology” value is reported as “no effect”.
